Results published in US10174013B2, “Benzimidazole derivatives as kinase inhibitors” (SELVITA S.A., priority 2012, dated 2019).
pIC50: −log10 of the molar value. Structures can show the parent of a compound that is named as a salt. Where two headings read alike, the source gives them in different places.

What was measured:
[1] = molecular target: FLT3wt (Homo sapiens (Human), UniProt P36888); test: ADP-Glo Kinase Assay, Flt3 wt; type: biochemical; settings: 1 μM compound; for inhibition at 1 µM: read-out: Flt3wt % INH (1 μM)
Outline: (§1)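 ADP-Glo luminescent ADP detection of human kinase activity in 5 mM MOPS pH 7.5, 5 mM MgCl2, 0.4 mM EDTA, 1.5 mM DTT. ATP at each kinase's apparent Km; compounds diluted to 1000 nM in assay buffer. Percent inhibition from normalised luminescence.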

[2] = test system: HepG2 cells; test: Growth inhibition, MTS assay, HepG2; type: cell-based, Human; settings: MTS cell viability, read-out: HepG2 ED50; for pIC50: Homo sapiens, HepG2, 72 h; for IC50: 72 hours
[3] = test system: MV4-11 cells; test: Growth inhibition, MTS assay, MV4-11; type: cell-based, Human; settings: MTS cell viability, read-out: MV4-11 ED50; for pIC50: Homo sapiens, MV4-11, 72 h; for IC50: 72 hours
[4] = molecular target: CDK2/E (Homo sapiens (Human), UniProt P24941); test: ADP-Glo Kinase Assay, CDK2/E; type: biochemical; settings: 1 μM compound; for inhibition at 1 µM: read-out: CDK2/E % INH (1 μM)
Outline: as §1

[5] = molecular target: Pim-3 (Homo sapiens (Human), UniProt Q86V86); test: ADP-Glo Kinase Assay, Pim-3; type: biochemical; settings: 1 μM compound; for inhibition at 1 µM: read-out: Pim-3 % INH (1 μM)
Outline: as §1

[6] = molecular target: Pim-1 (Homo sapiens (Human), UniProt P11309); test: ADP-Glo Kinase Assay, Pim-1; type: biochemical; settings: 1 μM compound; for inhibition at 1 µM: read-out: Pim-1 % INH (1 μM)
Outline: as §1

[7] = molecular target: CYP3A4 (Homo sapiens (Human), UniProt P08684); test: Cytochrome P450 inhibition, fluorescence, CYP3A4; type: in vitro ADME; settings: recombinant CYP3A4, fluorescence detection; read-out: CYP inhibition (CYP 3A4 screening, IC50 class)
Procedure: The assays for cytochrome P450 inhibition facilitate the identification of drug candidates with lower potential for drug-drug interactions (weak enzymes inhibitors). In vitro experiments were conducted to determine whether a drug inhibits a specific CYP enzyme. The experiments comprised the incubation of the drug with probe substrates for the CYP enzymes, wherein the following recombinant cytochrome P450 isoforms were employed: CYP1A2, CYP2C8, CYP2C9, CYP2C19, CYP2D6 and CYP3A4, together with various probe substrates enabling fluorescence detection. The protocol uses a single substrate concentration near the apparent Km and multiple compound concentrations.
The assay was performed in 96-well microtiter plates. The row designations were A through H and the column designations were 1 through 12. […] Each compound (see Table 6 for tested compounds) was added to the wells in column 1 and serially diluted to the wells in column 8. Wells 9 and 10 were control wells which contained no test compound (therefore no inhibition-full signal is detected.) The wells in columns 11 and 12 were blanks, where STOP solution was added prior to the addition of the enzyme/substrate mix to the NADPH regenerating system (the only signal present in these wells is background noise.) The assay was conducted in a final volume of 0.2 ml per well.
The stock solutions of the tested compounds were prepared in DMSO at 10 mM concentration. […] After mixing the compounds with solution containing NADPH-cofactors, the mixed plate was preincubated in a 37° C. incubator for at least 10 minutes; next, the fluorescence of compounds using recommended excitation/emission filters was measured in order to eliminate false results originating from autofluorescence of the compounds. In the following step, the enzyme/substrate mix was added to columns 1 through 10 and the plates were incubated at 37° C. for specific times depending on the CYP tested (incubation times ranged from 30 to 45 minutes). After adding STOP SOLUTION to all wells and respective enzyme/substrate mix to the wells in columns 11 and 12, the plate was scanned with a fluorescent plate scanner. The excitation/emission filters used for the specific assays are described in the GenTest Screening Kit instruction manual.

[8] = molecular target: DYRK1 (Homo sapiens (Human), UniProt Q13627); test: ADP-Glo Kinase Assay, DYRK1; type: biochemical; settings: 1 μM compound; for inhibition at 1 µM: read-out: DYRK1A % INH (1 μM)
Outline: as §1

[9] = test system: MOLM16 cells; test: Growth inhibition, MTS assay, MOLM16; type: cell-based, Human; settings: MTS cell viability, read-out: MOLM 16 ED50; for pIC50: Homo sapiens, MOLM16, 72 h; for IC50: 72 hours
Text: The following cell lines, were obtained and used in tests as outlined below: • Human myelomonocytic, biphenotypic leukemia MV4-11 cells (harboring a Flt3-ITD mutation); • Human Acute Myeloid Leukemia MOLM16 cells; • Human Acute Myeloid Leukemia MOLM13 cells (harboring a Flt3-ITD mutation); • Human Myeloid Leukemia KG-1 cells; • Human erythroleukemia HEL92 cells; • Human mantle cell lymphoma Jeko-1 cells; • Human hepatocellular carcinoma HepG2 cells; and • Human colon adenocarcinoma SW-480 cells.
The assays were carried out according to the following protocol, which is described as an example for the MV4-11 cells:
Ten thousand MV4-11 cells were inoculated into each well of a 96-well microplate (manufactured by Corning Corp.) using Iscove's MDM medium (culture medium) containing 10% fetal calf serum (FCS). The same day, a dimethyl sulfoxide (DMSO) solution of each test compound prepared in a concentration of 10 mmol/L was further diluted with DMSO to the desired concentrations (0.1, 0.5, 1, 2.5, 5 and 10 micromol/L), and the diluted solution was added to each well. The individual wells were further cultured in 5% carbon dioxide at 37° C. for 72 hours. […] Briefly, 10 μl MTS (3-(4,5-Dimethyl-2-thiazolyl)-5-(carboxymethoxyphenyl)-2-(4-sulfophenyl)-2H-tetrazolium was added to each well, and culturing was performed in 5% carbon dioxide at 37° C. for 2 hours. After this incubation and using a microplate spectrophotometer (Synergy 2 multi-mode microplate reader (BioTek)), the absorbance of each well was measured at 490 nm. The value for cells not incubated with a test compound was designated as 100%. By comparing these values with the absorbance difference obtained at the well in which each test compound was added, the cell viability (% viability) after treatment with the test compound was calculated.

[10] = test system: HEL92 cells; test: Growth inhibition, MTS assay, HEL92; type: cell-based, Human; settings: MTS cell viability, read-out: HEL92 ED50; for IC50: 72 hours; for pIC50: Homo sapiens, 72 h
[11] = molecular target: Pim-2 (Homo sapiens (Human), UniProt Q9P1W9); test: ADP-Glo Kinase Assay, Pim-2; type: biochemical; settings: 1 μM compound; for inhibition at 1 µM: read-out: Pim-2 % INH (1 μM)
Outline: as §1

Chain of CYP3A4 (P08684 whole entry, canonical isoform): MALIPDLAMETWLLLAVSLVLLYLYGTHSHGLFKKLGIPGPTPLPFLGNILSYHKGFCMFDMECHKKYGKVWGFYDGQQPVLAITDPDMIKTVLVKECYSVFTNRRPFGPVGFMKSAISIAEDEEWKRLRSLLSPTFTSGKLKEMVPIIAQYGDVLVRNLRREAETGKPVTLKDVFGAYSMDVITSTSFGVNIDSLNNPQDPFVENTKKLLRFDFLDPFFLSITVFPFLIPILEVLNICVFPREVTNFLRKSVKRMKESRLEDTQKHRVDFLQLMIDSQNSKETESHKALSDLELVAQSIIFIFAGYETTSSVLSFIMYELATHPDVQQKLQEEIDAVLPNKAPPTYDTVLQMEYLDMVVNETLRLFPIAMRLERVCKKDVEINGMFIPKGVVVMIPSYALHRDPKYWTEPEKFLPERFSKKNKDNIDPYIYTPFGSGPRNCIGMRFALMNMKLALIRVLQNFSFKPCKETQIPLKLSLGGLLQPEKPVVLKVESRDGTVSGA
Chain of FLT3wt (P36888 27-993): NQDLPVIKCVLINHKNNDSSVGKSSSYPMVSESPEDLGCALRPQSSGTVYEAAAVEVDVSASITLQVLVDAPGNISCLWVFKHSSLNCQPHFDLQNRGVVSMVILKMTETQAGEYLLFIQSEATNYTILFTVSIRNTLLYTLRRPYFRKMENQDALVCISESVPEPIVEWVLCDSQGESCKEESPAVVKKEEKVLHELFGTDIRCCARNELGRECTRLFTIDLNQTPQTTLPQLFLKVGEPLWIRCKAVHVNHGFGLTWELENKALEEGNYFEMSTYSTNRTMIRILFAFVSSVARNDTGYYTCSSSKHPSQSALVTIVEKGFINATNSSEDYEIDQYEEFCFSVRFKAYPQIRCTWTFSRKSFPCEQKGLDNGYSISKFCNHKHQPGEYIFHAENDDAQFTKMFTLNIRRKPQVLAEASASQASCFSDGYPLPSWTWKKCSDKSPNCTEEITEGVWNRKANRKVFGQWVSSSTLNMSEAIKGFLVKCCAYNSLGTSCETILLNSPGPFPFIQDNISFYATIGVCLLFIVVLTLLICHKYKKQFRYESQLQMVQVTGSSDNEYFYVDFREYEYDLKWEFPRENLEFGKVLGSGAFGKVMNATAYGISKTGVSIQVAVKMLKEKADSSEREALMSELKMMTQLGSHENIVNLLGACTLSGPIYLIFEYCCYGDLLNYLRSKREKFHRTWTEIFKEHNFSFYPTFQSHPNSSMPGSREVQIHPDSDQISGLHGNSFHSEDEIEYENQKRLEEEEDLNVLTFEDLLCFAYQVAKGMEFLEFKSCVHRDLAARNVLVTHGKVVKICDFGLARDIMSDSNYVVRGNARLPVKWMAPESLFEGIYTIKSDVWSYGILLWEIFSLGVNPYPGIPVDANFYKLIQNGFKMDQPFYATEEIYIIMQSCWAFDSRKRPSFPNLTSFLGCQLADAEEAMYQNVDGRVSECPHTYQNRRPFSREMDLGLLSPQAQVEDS
Chain of Pim-2 (Q9P1W9 whole entry): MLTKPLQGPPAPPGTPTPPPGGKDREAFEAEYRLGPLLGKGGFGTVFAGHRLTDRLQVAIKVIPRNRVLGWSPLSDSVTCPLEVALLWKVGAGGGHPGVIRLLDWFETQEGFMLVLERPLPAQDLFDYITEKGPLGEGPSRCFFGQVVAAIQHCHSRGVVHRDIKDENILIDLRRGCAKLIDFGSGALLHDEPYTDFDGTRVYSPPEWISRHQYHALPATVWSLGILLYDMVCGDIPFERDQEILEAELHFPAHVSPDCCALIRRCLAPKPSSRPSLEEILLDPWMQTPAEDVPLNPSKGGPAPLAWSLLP
Chain of Pim-1 (P11309 whole entry): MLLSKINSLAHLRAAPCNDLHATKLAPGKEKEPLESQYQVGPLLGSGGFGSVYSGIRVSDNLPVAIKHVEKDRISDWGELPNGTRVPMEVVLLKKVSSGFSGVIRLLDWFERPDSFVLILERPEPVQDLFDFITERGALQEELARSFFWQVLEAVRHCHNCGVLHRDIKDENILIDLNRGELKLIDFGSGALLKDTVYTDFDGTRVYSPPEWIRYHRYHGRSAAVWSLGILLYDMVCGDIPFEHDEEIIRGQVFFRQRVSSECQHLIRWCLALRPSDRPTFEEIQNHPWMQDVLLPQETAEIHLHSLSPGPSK

SMILES	inhibition at 1 µM [1]	pIC50 [2]	pIC50 [3]	inhibition at 1 µM [4]	inhibition at 1 µM [6]	pIC50 [7]	inhibition at 1 µM [8]	pIC50 [9]	IC50 [3]	other results
CC(C)n1c(N2CCOC(CN)C2)nc2c(C#N)c(Br)c(Br)cc21 (centres unmarked) [Example 1BM]	< 5%	5.35	5.31	< 5%	> 95%	5.48 to 5.96				inhibition at 1 µM [5]: 62%
CC(C)n1c(N2CCC(N)CC2)nc2c(C#N)c(Br)c(Br)cc21 [Example 1DT]	< 5%	6.00	5.82	46%	> 95%		34%	6.52		
CN[C@@H]1CCN(c2nc3c(C#N)c(Br)c(Br)cc3n2C(C)C)C1 [Example 1DW]	8%		5.29	48%	> 95%			6.52		
N[C@@H]1CCN(c2nc3c([N+](=O)[O-])c(Br)c(Br)cc3n2C2CCC2)C1 [Example 1DC]									200 nM	Flt3wt % INH (1 μM) [1]: 52%; IC50 [2]: 1000 nM; DYRK1A % INH (1 μM) [8]: >95%; IC50 [9]: 160 nM; IC50 [10]: 2000 nM; Pim-1 % INH (1 μM) [6]: >95%
CCn1c(NC2CCC(N)CC2)nc2c(C#N)c(Br)c(Br)cc21 (centres unmarked) [Example 1DV]	< 5%	5.54	5.68	50%	> 95%		95%	5.82		
CCn1c(NC2CCC(N)CC2)nc2c([N+](=O)[O-])c(Br)c(Br)cc21 (centres unmarked) [Example 1DU]								6.05	1000 nM	Flt3wt % INH (1 μM) [1]: 12%; IC50 [2]: 1300 nM; DYRK1A % INH (1 μM) [8]: 39%; CDK2/E % INH (1 μM) [4]: 53%; pIC50 [10]: 5.26; Pim-1 % INH (1 μM) [6]: >95%
CC(C)n1c(NC2CCNC2)nc2c(C#N)c(Br)c(Br)cc21 (centres unmarked) [Example 1BH]		5.25		< 5%	83%	< 5.00			4600 nM	Flt3wt % INH (1 μM) [1]: <5%; DYRK1A % INH (1 μM) [8]: 22%; Pim-2 % INH (1 μM) [11]: 13%; Pim-3 % INH (1 μM) [5]: 60%

Continued, in another order:

inhibition at 1 µM [1]	pIC50 [2]	pIC50 [3]	inhibition at 1 µM [4]	inhibition at 1 µM [6]	pIC50 [7]	inhibition at 1 µM [8]	pIC50 [9]	IC50 [3]	SMILES	other results
	5.57	5.23		59%		33%	5.14		CC(C)n1c(N2CCNCC2)nc2c([N+](=O)[O-])c(C(F)(F)F)c(Br)cc21 [Example 9B, 6-bromo-4-nitro-2-(piperazin-1-yl)-1-(propan-2-yl)-5-(trifluoromethyl)-1H-1,3-benzodiazole]	
43%			36%	> 95%			7.00	400 nM	CC(C)n1c(C2CCCC(N)C2)nc2c([N+](=O)[O-])c(Br)c(Br)cc21 (single isomer, unassigned) [Example 26B, 3-[5,6-dibromo-4-nitro-1-(propan-2-yl)-1H-1,3-benzodiazol-2-yl]cyclohexan-1-amine]	IC50 [10]: 6100 nM
89%	5.89	6.70	60%	> 95%	5.00 to 5.48	> 95%			CCC(C)n1c(N2CCNCC2)nc2c([N+](=O)[O-])c(Br)c(Br)cc21 (centres unmarked) [Example 2I, 5,6-dibromo-1-(butan-2-yl)-4-nitro-2-(piperazin-1-yl)-1H-1,3-benzodiazole hydrochloride]	inhibition at 1 µM [11]: 75%; pIC50 [10]: 6.10; inhibition at 1 µM [5]: > 95%
13%		5.32	5%	> 95%	< 5.00				CC(C)n1c(N2CCCC(O)C2)nc2c([N+](=O)[O-])c(Br)c(Br)cc21 (centres unmarked) [Example 22G, 1-[5,6-dibromo-4-nitro-1-(propan-2-yl)-1H-1,3-benzodiazol-2-yl]piperidin-3-]	inhibition at 1 µM [11]: 47%; inhibition at 1 µM [5]: 87%
< 5%	5.20	5.64	20%	> 95%			5.72		NCCCn1c(N2CC[C@@H](N)C2)nc2c([N+](=O)[O-])c(Br)c(Br)cc21 [Example 3A, (3R)-1-[1-(3-aminopropyl)-5,6-dibromo-4-nitro-1H-1,3-benzodiazol-2-yl]pyrrolidin-3-amine]	
38%		6.10	36%	> 95%			6.00		CC(C)n1c(C2CCC(N)CC2)nc2c([N+](=O)[O-])c(Br)c(Br)cc21 (centres unmarked) [Example 26D, 4-[5,6-dibromo-4-nitro-1-(propan-2-yl)-1H-1,3-benzodiazol-2-yl]cyclohexan-1-amine]	pIC50 [10]: 5.01
< 5%		5.27	< 5%	> 95%	< 5.00	20%			CC(C)n1c(N2CCC[C@H](O)C2)nc2c([N+](=O)[O-])c(Br)c(Br)cc21 [Example 22I, (3S)-1-[5,6-dibromo-4-nitro-1-(propan-2-yl)-1H-1,3-benzodiazol-2-yl]piperidin-3-ol]	inhibition at 1 µM [11]: 28%; inhibition at 1 µM [5]: 84%
								100 nM	CC(C)n1c(C2CCCC(N)C2)nc2c([N+](=O)[O-])c(Br)c(Br)cc21 (single isomer, unassigned) [Example 26C, 3-[5,6-dibromo-4-nitro-1-(propan-2-yl)-1H-1,3-benzodiazol-2-yl]cyclohexan-1-amine]	Flt3wt % INH (1 μM) [1]: 55%; IC50 [9]: 200 nM; CDK2/E % INH (1 μM) [4]: 55%; IC50 [10]: 3000 nM; Pim-1 % INH (1 μM) [6]: >95%
